Laboratory results published in patent US9845330B2, “6-nitro-2,3-dihydroimidazo[2,1-b]oxazoles and a process for the preparation thereof” (priority 2013, dated 2017).
Values after ≈ are worked out from the molar mass of the structure shown. Like-named read-outs stand apart in the source and are kept apart here.

How the values were obtained:
Assay type in all cases: cell-based
[1] = system: M. tuberculosis H37Rv (ATCC 27294); assay: MIC by broth dilution method, M. tuberculosis H37Rv; conditions: Mycobacterium tuberculosis
[2] = Cytotoxicity assay (MTT) in macrophage J774 cells; conditions: mouse, J774 macrophage cells; also called safety index
Experimental: (§1) The study was carried out using macrophage J774 cells line (ATCC-USA). Cells were grown in Rosewell Park Memorial Institute Medium (RPMI) containing 10% fetal calf serum (FCS) and supplemented with 75 mg/liter penicillin, 100 mg/liter streptomycin, 110 mg/liter Sodium pyruvate, 2.38 gm/liter HEPES, 0.05 mM 2 β-mercaptoethanol, and 2 gm/liter NaHCO3, in a humidified atmosphere in 5% CO2 at 37° C., and were sub-cultured at 1:4 ratio once a week.
(§2) Cells were plated at a density of 3×10^4 cells/cm^2 and maintained in culture medium for 12 hours. Cells were seeded onto 96-well flat bottom plates and FCS was reduced to 5% for the experiment. Stock solutions of compounds IA1 to IIC10 were prepared fresh to avoid oxidation. Cells were incubated with the compounds (40 μg/ml) for 24 hrs.
(§3) After the completion of incubation, the medium was removed and cell viability was evaluated by assaying for the ability of functional mitochondria to catalyze the reduction of 3-(4,5-dimethylthiazol-2-yl)-2,5-diphenyltetrazolium bromide (MTT) to form formazan salt by mitochondrial dehydrogenases, and determined by Elisa reader at 450 nm (Multiskan Spectrum; Thermo Electron Corporation, USA). Percentage cytotoxicity was calculated with respect to the untreated cells.

[3] = system: macrophage J774 cells line; assay: Cytotoxicity assay (MTT) in macrophage J774 cells; conditions: J774 cells, 24 hrs, MTT
Experimental: as §1, §2, §3

[4] = 504 h, broth dilution, 3 weeks, read-out: MIC M. tb H37Rv
[5] = read-out: MIC value, text summary: sensitive H37Rv as well as MDR and XDR strains of M. tuberculosis

SMILES	MIC [1, 4] [µg/mL]	MIC [1, 5] [µg/mL]	selectivity ratio at 24 h, 40 μg/ml [2]	Cytotoxicity [3] [µg/mL]	MIC ([1]; 504 h, read-out: MIC M. tb H37Rv, broth dilution, 3 weeks) [µg/mL]
CCc1ccc(NC(=O)Nc2ccc(OC[C@@]3(C)Cn4cc([N+](=O)[O-])nc4O3)cc2)cc1 [IIA2, (R)-1-(4-ethylphenyl)-3-{4-(2-methyl-6-nitro-2,3-dihydroimidazo[2,1-b]oxazol-2-yl)methoxyphenyl}urea]	0.5 (≈ 1.14 µM)	< 1	> 10	>40	–
C[C@]1(COc2ccc(-n3cc(-c4ccccc4)nn3)cc2)Cn2cc([N+](=O)[O-])nc2O1 [IA1]	4 (≈ 9.56 µM)	–	> 10	>40	–
C[C@]1(COc2ccc(-n3cc(-c4cccc(OC(F)(F)F)c4)nn3)cc2)Cn2cc([N+](=O)[O-])nc2O1 [IA12, (R)-2-{4-[4-(3-trifluoromethoxyphenyl)-1H-1,2,3-triazol-1-yl]phenoxymethyl}-2,3-dihydro-2-methyl-6-nitroimidazo[2,1-b]oxazole]	0.5 (≈ 0.995 µM)	< 1	> 10	>40	–
CCc1ccc(-c2cc(-c3ccc(OC[C@@]4(C)Cn5cc([N+](=O)[O-])nc5O4)cc3)no2)cc1 [IC2, (R)-2-{4-[5-(4-ethylphenyl)isoxazol-3-yl]phenoxymethyl}-2,3-dihydro-2-methyl-6-nitroimidazo[2,1-b]oxazole]	2 (≈ 4.48 µM)	–	> 10	>40	–
C[C@]1(COc2ccc(-c3cc(COc4ccccc4F)on3)cc2)Cn2cc([N+](=O)[O-])nc2O1 [IC16, (R)-2-{4-[5-(2-fluorophenoxymethyl)isoxazol-3-yl]phenoxymethyl}-2,3-dihydro-2-methyl-6-nitroimidazo[2,1-b]oxazole]	0.5 (≈ 1.07 µM)	< 1	> 10	>40	–
CC(C)c1ccc(OCc2cn(-c3ccc(OC[C@@]4(C)Cn5cc([N+](=O)[O-])nc5O4)cc3)nn2)cc1 [IA30]	32 (≈ 65.2 µM)	–	> 10	>40	–
C[C@]1(COc2ccccc2-n2cc(COc3ccc(C(F)(F)F)cc3)nn2)Cn2cc([N+](=O)[O-])nc2O1 [IA41]	2 (≈ 3.87 µM)	–	> 10	>40	–
Cc1ccc(OCc2cn(-c3ccc(OC[C@@]4(C)Cn5cc([N+](=O)[O-])nc5O4)cc3)nn2)cc1 [IA29]	32 (≈ 69.2 µM)	–	> 10	>40	–
COc1ccc(-c2cc(-c3ccc(OC[C@@]4(C)Cn5cc([N+](=O)[O-])nc5O4)cc3)no2)cc1 [IC7, (R)-2-{4-[5-(4-methoxyphenyl)isoxazol-3-yl]phenoxymethyl}-2,3-dihydro-2-methyl-6-nitroimidazo[2,1-b]oxazole]	0.5 (≈ 1.11 µM)	< 1	> 10	>40	–
C[C@]1(COc2ccc(S(=O)(=O)N3CCCCC3)cc2)Cn2cc([N+](=O)[O-])nc2O1 [IIC7, (R)-2-{4-(piperidin-1-ylsulfonyl)phenoxymethyl}-2,3-dihydro-2-methyl-6-nitroimidazo[2,1-b]oxazole]	1 (≈ 2.37 µM)	–	> 10	>40	–
C[C@]1(COc2ccc(-c3cc(COc4ccc(C(F)(F)F)cc4)on3)cc2)Cn2cc([N+](=O)[O-])nc2O1 [IC15, (R)-2-{4-[5-(4-trifluoromethylphenoxymethyl)isoxazol-3-yl]phenoxymethyl}-2,3-dihydro-2-methyl-6-nitroimidazo[2,1-b]oxazole]	0.25 (≈ 0.484 µM)	< 1	> 10	>40	–
Cc1ccc(OCc2cc(-c3ccc(OC[C@@]4(C)Cn5cc([N+](=O)[O-])nc5O4)cc3)no2)cc1 [IC17, (R)-2-{4-[5-(4-methylphenoxymethyl)isoxazol-3-yl]phenoxymethyl}-2,3-dihydro-2-methyl-6-nitroimidazo[2,1-b]oxazole]	0.5 (≈ 1.08 µM)	< 1	> 10	>40	–
C[C@]1(COc2ccccc2-n2cc(-c3ccc(F)cc3F)nn2)Cn2cc([N+](=O)[O-])nc2O1 [IA24, (R)-2-{2-[4-(2,4-difluorophenyl)-1H-1,2,3-triazol-1-yl]phenoxymethyl}-2,3-dihydro-2-methyl-6-nitroimidazo[2,1-b]oxazole]	1 (≈ 2.2 µM)	–	> 10	>40	–
COc1ccc(NC(=O)Nc2ccc(OC[C@@]3(C)Cn4cc([N+](=O)[O-])nc4O3)cc2)cc1 [IIA5, (R)-1-(4-methoxyphenyl)-3-{4-(2-methyl-6-nitro-2,3-dihydroimidazo[2,1-b]oxazol-2-yl)methoxyphenyl}urea]	1 (≈ 2.28 µM)	–	> 10	>40	–
C[C@]1(COc2ccc(-c3cc(COc4ccc(F)cc4F)on3)cc2)Cn2cc([N+](=O)[O-])nc2O1 [IC22, (R)-2-{4-[5-(2,4-difluorophenoxymethyl)isoxazol-3-yl]phenoxymethyl}-2,3-dihydro-2-methyl-6-nitroimidazo[2,1-b]oxazole]	0.12 (≈ 0.248 µM)	< 1	> 10	>40	–
CCc1ccc(OCc2cn(-c3ccc(OC[C@@]4(C)Cn5cc([N+](=O)[O-])nc5O4)cc3)nn2)cc1 [IA31]	0.25 (≈ 0.525 µM)	< 1	> 10	>40	–
C[C@]1(COc2ccc(-c3cc(-c4ccccc4)on3)cc2)Cn2cc([N+](=O)[O-])nc2O1 [IC1, (R)-2-{4-[5-phenylisoxazol-3-yl]phenoxymethyl}-2,3-dihydro-2-methyl-6-nitroimidazo[2,1-b]oxazole]	–	< 1	> 10	>40	0.06 (≈ 0.143 µM)
C[C@]1(COc2ccc(-c3cc(-c4ccc(OC(F)(F)F)cc4)on3)cc2)Cn2cc([N+](=O)[O-])nc2O1 [IC10, (R)-2-{4-[5-(4-trifluoromethoxyphenyl)isoxazol-3-yl]phenoxymethyl}-2,3-dihydro-2-methyl-6-nitroimidazo[2,1-b]oxazole]	0.5 (≈ 0.995 µM)	< 1	> 10	>40	–
C[C@]1(COc2ccc(-n3cc(-c4cccc(C(F)(F)F)c4)nn3)cc2)Cn2cc([N+](=O)[O-])nc2O1 [IA13, (R)-2-{4-[4-(3-trifluoromethylphenyl)-1H-1,2,3-triazol-1-yl]phenoxymethyl}-2,3-dihydro-2-methyl-6-nitroimidazo[2,1-b]oxazole]	2 (≈ 4.11 µM)	–	> 10	>40	–
CCC(C)c1ccc(OCc2cn(-c3ccc(OC[C@@]4(C)Cn5cc([N+](=O)[O-])nc5O4)cc3)nn2)cc1 (stereo partly shown) [IA32]	0.12 (≈ 0.238 µM)	< 1	> 10	>40	–
C[C@]1(COc2ccc(-n3cc(-c4ccccc4C(F)(F)F)nn3)cc2)Cn2cc([N+](=O)[O-])nc2O1 [IA6, (R)-2-{4-[4-(2-trifluoromethylphenyl)-1H-1,2,3-triazol-1-yl]phenoxymethyl}-2,3-dihydro-2-methyl-6-nitroimidazo[2,1-b]oxazole]	1 (≈ 2.06 µM)	–	> 10	>40	–
C[C@]1(COc2ccc(S(=O)(=O)N3CCC(c4ccccc4)CC3)cc2)Cn2cc([N+](=O)[O-])nc2O1 [IIC8, (R)-2-{4-[(4-phenylpiperidin-1-yl)sulfonyl]phenoxymethyl}-2,3-dihydro-2-methyl-6-nitroimidazo[2,1-b]oxazole]	0.5 (≈ 1 µM)	0.5 (≈ 1 µM)	> 10	>40	–
C[C@]1(COc2ccccc2-n2cc(COc3ccc(F)cc3)nn2)Cn2cc([N+](=O)[O-])nc2O1 [IA40]	4 (≈ 8.58 µM)	–	> 10	>40	–
C[C@]1(COc2ccccc2-n2cc(COc3ccc(OC(F)(F)F)cc3)nn2)Cn2cc([N+](=O)[O-])nc2O1 [IA39]	1 (≈ 1.88 µM)	–	> 10	>40	–
CCCCCc1cn(-c2ccc(OC[C@@]3(C)Cn4cc([N+](=O)[O-])nc4O3)cc2)nn1 [IA15, (R)-2-{4-[4-pentyl-1H-1,2,3-triazol-1-yl]phenoxymethyl}-2,3-dihydro-2-methyl-6-nitroimidazo[2,1-b]oxazole]	32 (≈ 77.6 µM)	–	> 10	>40	–
CCOC(=O)N1CCN(S(=O)(=O)c2ccc(OC[C@@]3(C)Cn4cc([N+](=O)[O-])nc4O3)cc2)CC1 [IIC5, (R)-ethyl-{4-[4-(2-methyl-6-nitro-2,3-dihydroimidazo[2,1-b]oxazol-2yl)methoxyphenyl]sulfonyl}piperazine-1-carboxylate]	2 (≈ 4.04 µM)	–	> 10	>40	–
C[C@]1(COc2ccc(-n3cc(COc4ccc(F)cc4)nn3)cc2)Cn2cc([N+](=O)[O-])nc2O1 [IA26]	0.5 (≈ 1.07 µM)	< 1	> 10	>40	–
